Laboratory results published in patent publication US20120142720A1, “Phenylethanoic Acid, Phenylpropanoic Acid and Phenylpropenoic Acid Conjugates and Prodrugs of Hydrocodone, Methods of Making and Use Thereof” (KEMPHARM, INC., priority 2009, published 2012).

What was measured:
[1] = Chemical stability: hydrolysis in 5% NaHCO3; format: physicochemical; details: 5% NaHCO3, one hour
[2] = Chemical stability: hydrolysis to hydrocodone in 1N HCl; details: 1 hour
[3] = Water solubility / feasibility of intravenous or intranasal dosing; details: with regard to intravenous or intranasal dosing at oral equivalent doses
[4] = Intranasal PK profile in rats, plasma hydrocodone and hydromorphone by LC-MS/MS
[5] = Oral PK profile in rats, plasma hydrocodone and hydromorphone by LC-MS/MS
[6] = equivalent to 2 mg/kg freebase hydrocodone, FIG. 7
[7] = equivalent to 2 mg/kg freebase hydrocodone, FIG. 8

In the case of `COc1ccc2c3c1OC1C(OC(=O)CCCCC(=O)O)=CC[C@H]4[C@@H](C2)N(C)CC[C@]314` (stereo partly drawn) [Adipate-HC], the “initial amount of conjugate hydrolyzed” value ([1]; ambient (~20° C.)) is reported as 3%, the “initial amount of conjugate hydrolyzed” value ([1]; oil bath 100° C.) is reported as 100% and the “initial amount of conjugate hydrolyzed” value ([2]; ambient (~20° C.)) is reported as 13%. The “initial amount of conjugate hydrolyzed” value ([2]; oil bath 100° C.) was 100%, the water solubility [3] was “water-soluble” and the “hydrocodone AUC, higher than Ibu-HC” value [4, 6] was “approximately 170%”. For the same compound, the “hydrocodone Cmax, higher than Ibu-HC” value [4, 6] was roughly 245%, the “hydromorphone AUC, higher than Ibu-HC” value [4, 7] was “approximately 940%” and the “hydromorphone Cmax, higher than Ibu-HC” value [4, 7] was ~1,010%.
For `COc1ccc2c3c1OC1C(OC(=O)/C=C/c4ccccc4)=CCC4C(C2)N(C)CCC314` (stereo not drawn) [Cinnamate-HC, cinnamate-hydrocodone], the “hydrocodone plasma concentrations during subsequent elimination compared with Hydrocodone.BT” value ([5]; equivalent to 2 mg/kg freebase hydrocodone, FIG. 9) was “similar”.
With `COc1ccc2c3c1OC1C(OC(=O)COCC(=O)O)=CC[C@H]4[C@@H](C2)N(C)CC[C@]314` (stereo partly drawn) [Diglycolate-HC] the water solubility [3] was “water-soluble”.
For `COc1ccc2c3c1O[C@H]1C(=O)CC[C@H]4[C@@H](C2)N(C)CC[C@]314.O=C(O)C(O)C(O)C(=O)O` [Hydrocodone.BT, hydrocodone bitartrate], the “hydrocodone AUC, higher than Ibu-HC” value ([4]; Example 6, FIG. 11) was “approximately 300%” and the “hydrocodone Cmax, higher than Ibu-HC” value ([4]; Example 6, FIG. 11) was roughly 525%.
For `COc1ccc2c3c1OC1C(OC(=O)C(C)c4ccc(CC(C)C)cc4)=CCC4C(C2)N(C)CCC314` (stereo not drawn) [Ibu-HC, ibuprofen-hydrocodone], the “initial amount of conjugate hydrolyzed” value ([1]; ambient (~20° C.)) was 0%, the “initial amount of conjugate hydrolyzed” value ([1]; oil bath 100° C.) was 22% and the water solubility [3] was “very low water solubility”. For the same compound, the “hydromorphone AUC compared with Diglycolate-HC” value ([5]; equivalent of 2 mg/kg hydrocodone freebase, FIG. 6) was “similar”, the “hydrocodone and hydromorphone plasma concentrations compared with unconjugated Hydrocodone.BT” value ([5]; equivalent to 2 mg/kg freebase hydrocodone, FIG. 9 and FIG. 10) was “similar” and the “AUC and Cmax values (hydrocodone and hydromorphone) compared with Hydrocodone.BT” value ([5]; same dose based on hydrocodone freebase) was “within the range of bioequivalence”. For the same compound, the “hydrocodone plasma concentrations compared with Hydrocodone.BT” value ([4]; Example 6, FIG. 11) was “significantly lower”, the “hydromorphone plasma concentration compared with Hydrocodone.BT” value ([4]; Example 6, FIG. 12) was “very low plasma concentration” and the “hydrocodone plasma concentrations compared with Adipate-HC” value [4, 6] was “significantly lower”. The “hydromorphone plasma concentration compared with Adipate-HC” value [4, 7] was “very low plasma concentration”.
In the case of `COc1ccc2cc(C(C)C(=O)OC3=CCC4C5Cc6ccc(OC)c7c6C4(CCN5C)C3O7)ccc2c1` (stereo not drawn) [Naproxen-HC, naproxen-hydrocodone], the “initial amount of conjugate hydrolyzed” value ([1]; ambient (~20° C.)) is reported as 0%, the “initial amount of conjugate hydrolyzed” value ([1]; oil bath 100° C.) is reported as 8% and the “initial amount of conjugate hydrolyzed” value ([2]; ambient (~20° C.)) is reported as 0%. For the same compound, the “initial amount of conjugate hydrolyzed” value ([2]; oil bath 100° C.) was 33%.
